Patent publication US20090298820A1, “3-SUBSTITUTED-1H-PYRROLO[2,3-B]PYRIDINE AND 3-SUBSTITUTED-1H-PYRROLO[3,2-B]PYRIDINE COMPOUNDS, THEIR USE AS MTOR KINASE AND PI3 KINASE INHIBITORS, AND THEIR SYNTHESES” (Wyeth, priority 2008, published 2009)
pIC50: −log10 of the molar value. Read-outs that look alike come from different tables or passages of the source.

Experiments:
Assay type in all cases: biochemical
PI3Kγ = PI3Kγ (Homo sapiens, UniProt P48736); assay: PI3K-gamma fluorescence polarization assay; conditions: read-out: PI3Kγ Median IC50
mTOR = mTOR (Homo sapiens, UniProt P42345); assay: mTOR enzyme assay (DELFIA format, His6-S6K substrate)
PI3Kα = PI3Kα (Homo sapiens, UniProt P42336); assay: PI3K-alpha fluorescence polarization assay; conditions: read-out: PI3Kα Median IC50
[1] = read-out: mTOR Kinase Median IC50

Chain of PI3Kα (P42336 whole entry, species assumed): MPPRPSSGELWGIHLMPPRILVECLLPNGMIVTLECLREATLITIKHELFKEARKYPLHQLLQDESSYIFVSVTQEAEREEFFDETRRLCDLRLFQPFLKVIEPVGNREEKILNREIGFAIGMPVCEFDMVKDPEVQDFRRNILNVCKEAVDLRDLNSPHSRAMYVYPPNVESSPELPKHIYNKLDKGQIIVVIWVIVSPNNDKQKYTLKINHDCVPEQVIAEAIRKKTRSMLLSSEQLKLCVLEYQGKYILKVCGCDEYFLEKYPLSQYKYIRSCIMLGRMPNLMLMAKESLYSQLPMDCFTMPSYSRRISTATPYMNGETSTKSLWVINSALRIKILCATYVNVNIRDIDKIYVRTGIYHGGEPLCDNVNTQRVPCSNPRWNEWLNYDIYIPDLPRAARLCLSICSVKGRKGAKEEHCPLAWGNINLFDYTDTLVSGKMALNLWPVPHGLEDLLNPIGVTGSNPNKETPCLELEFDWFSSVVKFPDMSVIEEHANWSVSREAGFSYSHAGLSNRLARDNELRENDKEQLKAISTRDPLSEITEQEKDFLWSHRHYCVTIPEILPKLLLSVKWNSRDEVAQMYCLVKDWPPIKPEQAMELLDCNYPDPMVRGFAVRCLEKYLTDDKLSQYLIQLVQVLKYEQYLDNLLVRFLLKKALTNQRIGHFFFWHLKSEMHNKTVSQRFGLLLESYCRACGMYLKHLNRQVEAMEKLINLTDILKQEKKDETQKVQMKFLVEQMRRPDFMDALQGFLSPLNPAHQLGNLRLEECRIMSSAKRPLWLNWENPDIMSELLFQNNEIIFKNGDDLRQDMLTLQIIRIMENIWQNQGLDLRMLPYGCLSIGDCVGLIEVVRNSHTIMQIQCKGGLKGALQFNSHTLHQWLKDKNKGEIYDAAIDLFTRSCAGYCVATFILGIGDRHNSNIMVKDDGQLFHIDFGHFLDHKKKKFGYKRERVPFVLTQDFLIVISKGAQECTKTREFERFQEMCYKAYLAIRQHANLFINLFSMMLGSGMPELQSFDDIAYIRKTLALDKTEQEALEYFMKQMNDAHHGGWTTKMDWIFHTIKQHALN
Chain of PI3Kα (P27986 whole entry partner, species assumed): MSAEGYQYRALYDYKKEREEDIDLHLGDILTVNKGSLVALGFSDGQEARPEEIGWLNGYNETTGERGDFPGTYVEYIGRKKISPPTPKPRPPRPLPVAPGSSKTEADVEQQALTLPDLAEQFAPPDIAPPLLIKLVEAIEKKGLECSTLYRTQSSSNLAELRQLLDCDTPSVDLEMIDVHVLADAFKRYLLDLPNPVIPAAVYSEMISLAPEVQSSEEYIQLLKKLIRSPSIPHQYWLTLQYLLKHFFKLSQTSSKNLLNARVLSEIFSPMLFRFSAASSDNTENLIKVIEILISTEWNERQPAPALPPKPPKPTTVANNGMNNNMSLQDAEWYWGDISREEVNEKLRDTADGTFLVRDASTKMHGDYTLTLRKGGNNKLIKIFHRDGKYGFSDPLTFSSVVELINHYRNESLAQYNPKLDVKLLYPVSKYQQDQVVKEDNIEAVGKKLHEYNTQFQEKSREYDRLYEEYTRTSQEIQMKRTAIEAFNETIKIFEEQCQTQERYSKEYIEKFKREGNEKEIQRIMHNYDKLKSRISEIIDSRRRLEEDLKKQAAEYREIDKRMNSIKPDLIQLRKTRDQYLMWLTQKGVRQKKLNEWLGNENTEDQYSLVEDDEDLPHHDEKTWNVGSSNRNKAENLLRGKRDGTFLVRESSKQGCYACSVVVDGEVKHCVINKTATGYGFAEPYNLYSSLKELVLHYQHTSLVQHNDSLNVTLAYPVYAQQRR
Chain of PI3Kγ (P48736 whole entry, species assumed): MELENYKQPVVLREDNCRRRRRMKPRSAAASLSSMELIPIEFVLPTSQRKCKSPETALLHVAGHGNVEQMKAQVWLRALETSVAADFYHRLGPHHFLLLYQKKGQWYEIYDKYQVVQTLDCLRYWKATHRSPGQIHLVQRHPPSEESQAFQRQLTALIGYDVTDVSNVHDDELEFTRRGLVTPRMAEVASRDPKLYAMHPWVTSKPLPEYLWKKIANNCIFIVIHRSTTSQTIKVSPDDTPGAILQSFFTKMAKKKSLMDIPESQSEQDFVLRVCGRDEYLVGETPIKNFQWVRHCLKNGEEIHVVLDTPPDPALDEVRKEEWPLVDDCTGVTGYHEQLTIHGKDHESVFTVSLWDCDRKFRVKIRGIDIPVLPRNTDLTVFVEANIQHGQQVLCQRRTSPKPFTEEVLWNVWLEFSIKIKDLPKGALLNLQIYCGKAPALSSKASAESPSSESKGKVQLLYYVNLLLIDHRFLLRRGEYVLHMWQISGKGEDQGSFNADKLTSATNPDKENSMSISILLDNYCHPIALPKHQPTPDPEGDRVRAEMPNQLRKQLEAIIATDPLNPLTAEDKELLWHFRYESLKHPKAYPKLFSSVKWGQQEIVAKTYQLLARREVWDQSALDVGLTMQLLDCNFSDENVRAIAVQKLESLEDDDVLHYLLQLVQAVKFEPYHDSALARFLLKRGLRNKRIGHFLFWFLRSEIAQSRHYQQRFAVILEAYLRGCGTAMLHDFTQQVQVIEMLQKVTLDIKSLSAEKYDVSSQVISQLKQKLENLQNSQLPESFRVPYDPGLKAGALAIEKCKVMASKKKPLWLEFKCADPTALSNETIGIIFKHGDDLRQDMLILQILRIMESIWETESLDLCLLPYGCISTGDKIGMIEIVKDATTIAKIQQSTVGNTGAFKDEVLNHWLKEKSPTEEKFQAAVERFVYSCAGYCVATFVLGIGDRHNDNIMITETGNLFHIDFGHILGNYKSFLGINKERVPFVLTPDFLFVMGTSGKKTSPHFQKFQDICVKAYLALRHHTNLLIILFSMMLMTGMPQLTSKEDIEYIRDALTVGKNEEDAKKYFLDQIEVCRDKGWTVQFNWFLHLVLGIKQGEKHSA

Row | Compound | pIC50 (PI3Kγ) | pIC50 (mTOR; [1]) | pIC50 (PI3Kα) | pIC50 (mTOR)
1 | Cn1cc(C=C2Oc3ccc(NC(=O)Nc4cccnc4)cc3C2=O)c2c(N3CCC(C(=O)NC4CCOCC4)CC3)ccnc21 [Compound 214, 1-[1-methyl-3-({3-oxo-5-[(pyridin-3-ylcarbamoyl)amino]-1-benzofuran-2(3H)-ylidene}methyl)-1H-pyrrolo[2,3-b]pyridin-4-yl]-N-(tetrahydro-2H-pyran-4-yl)piperidine-4-carboxamide] | < 5.00 | 7.99 | < 5.00 | –
2 | CN(Cc1ccccc1)C(=O)C1CCN(c2ccnc3c2c(C=C2Oc4ccc(NC(=O)Nc5cccnc5)cc4C2=O)cn3C)CC1 [Compound 215, N-benzyl-N-methyl-1-[1-methyl-3-({3-oxo-5-[(pyridin-3-ylcarbamoyl)amino]-1-benzofuran-2(3H)-ylidene}methyl)-1H-pyrrolo[2,3-b]pyridin-4-yl]piperidine-4-carboxamide] | 5.03 | 6.99 | < 5.00 | –
3 | CN(C)C(=O)C1CCN(c2ccnc3c2c(/C=C2\Oc4ccc(NC(=O)Nc5ccc(CN6CCCCC6)cc5)cc4C2=O)cn3C)CC1 [Compound 216, N,N-dimethyl-1-(1-methyl-3-{(Z)-[3-oxo-5-({[4-(piperidin-1-ylmethyl)phenyl]carbamoyl}amino)-1-benzofuran-2(3H)-ylidene]methyl}-1H-pyrrolo[2,3-b]pyridin-4-yl)piperidine-4-carboxamide] | 6.64 | 7.52 | 6.21 | –
4 | CN(C)C(=O)C1CCN(c2ccnc3c2c(/C=C2\Oc4ccc(NC(=O)Nc5ccc(N6CCOCC6)nc5)cc4C2=O)cn3C)CC1 [Compound 217, N,N-dimethyl-1-(1-methyl-3-{(Z)-[5-{[(6-morpholin-4-ylpyridin-3-yl)carbamoyl]amino}-3-oxo-1-benzofuran-2(3H)-ylidene]methyl}-1H-pyrrolo[2,3-b]pyridin-4-yl)piperidine-4-carboxamide] | < 5.00 | 7.01 | 5.40 | –
5 | CN1CCN(c2ccc(NC(=O)Nc3ccc4c(c3)C(=O)/C(=C/c3cn(C)c5nccc(N6CCC(C(=O)N(C)C)CC6)c35)O4)cc2)CC1 [Compound 218, N,N-dimethyl-1-(1-methyl-3-{(Z)-[5-({[4-(4-methylpiperazin-1-yl)phenyl]carbamoyl}amino)-3-oxo-1-benzofuran-2(3H)-ylidene]methyl}-1H-pyrrolo[2,3-b]pyridin-4-yl)piperidine-4-carboxamide] | < 5.00 | 6.35 | 6.00 | –
6 | Cn1cc(/C=C2\Oc3ccc(NC(=O)Nc4ccc(N5CCOCC5)nc4)cc3C2=O)c2c(N3CC4CCC(C3)O4)ccnc21 [Compound 219, 1-[(2Z)-2-{[1-methyl-4-(8-oxa-3-azabicyclo[3.2.1]oct-3-yl)-1H-pyrrolo[2,3-b]pyridin-3-yl]methylidene}-3-oxo-2,3-dihydro-1-benzofuran-5-yl]-3-(6-morpholin-4-ylpyridin-3-yl)urea] | < 5.00 | 7.54 | 5.65 | –
7 | CN(C)CCOc1ccc(NC(=O)Nc2ccc3c(c2)C(=O)/C(=C/c2cn(C)c4nccc(N5CC6CCC(C5)O6)c24)O3)cc1 [Compound 220, 1-{4-[2-(dimethylamino)ethoxy]phenyl}-3-[(2Z)-2-{[1-methyl-4-(8-oxa-3-azabicyclo[3.2.1]oct-3-yl)-1H-pyrrolo[2,3-b]pyridin-3-yl]methylidene}-3-oxo-2,3-dihydro-1-benzofuran-5-yl]urea] | < 5.00 | 7.20 | 6.04 | –
8 | CN1CCN(NC(=O)Nc2ccc3c(c2)C(=O)/C(=C/c2cn(C)c4nccc(N5CC6CCC(C5)O6)c24)O3)CC1 [Compound 221, 1-[(2Z)-2-{[1-methyl-4-(8-oxa-3-azabicyclo[3.2.1]oct-3-yl)-1H-pyrrolo[2,3-b]pyridin-3-yl]methylidene}-3-oxo-2,3-dihydro-1-benzofuran-5-yl]-3-(4-methylpiperazin-1-yl)urea] | 5.99 | 6.76 | 6.66 | –
9 | Cc1cnccc1CN(C)C(=O)C1CCN(c2ccnc3c2c(/C=C2\Oc4ccc(NC(=O)Nc5cccnc5)cc4C2=O)cn3C)CC1 [Compound 222, N-methyl-1-{1-methyl-3-[(Z)-{3-oxo-5-[(pyridin-3-ylcarbamoyl)amino]-1-benzofuran-2(3H)-ylidene}methyl]-1H-pyrrolo[2,3-b]pyridin-4-yl}-N-[(3-methylpyridin-4-yl)methyl]piperidine-4-carboxamide] | 5.60 | 7.47 | 5.55 | –
10 | Cc1cc(CN(C)C(=O)C2CCN(c3ccnc4c3c(/C=C3\Oc5ccc(NC(=O)Nc6cccnc6)cc5C3=O)cn4C)CC2)ccn1 [Compound 223, N-methyl-1-{1-methyl-3-[(Z)-{3-oxo-5-[(pyridin-3-ylcarbamoyl)amino]-1-benzofuran-2(3H)-ylidene}methyl]-1H-pyrrolo[2,3-b]pyridin-4-yl}-N-[(2-methylpyridin-4-yl)methyl]piperidine-4-carboxamide] | 5.90 | 7.64 | 5.73 | –
11 | COc1ccnc(CN(C)C(=O)C2CCN(c3ccnc4c3c(/C=C3\Oc5ccc(NC(=O)Nc6cccnc6)cc5C3=O)cn4C)CC2)c1 [Compound 224, N-[(4-methoxypyridin-2-yl)methyl]-N-methyl-1-{1-methyl-3-[(Z)-{3-oxo-5-[(pyridin-3-ylcarbamoyl)amino]-1-benzofuran-2(3H)-ylidene}methyl]-1H-pyrrolo[2,3-b]pyridin-4-yl}piperidine-4-carboxamide] | 5.85 | 7.63 | 5.63 | –
12 | Cc1cccc(CN(C)C(=O)C2CCN(c3ccnc4c3c(/C=C3\Oc5ccc(NC(=O)Nc6cccnc6)cc5C3=O)cn4C)CC2)n1 [Compound 225, N-methyl-1-{1-methyl-3-[(Z)-{3-oxo-5-[(pyridin-3-ylcarbamoyl)amino]-1-benzofuran-2(3H)-ylidene}methyl]-1H-pyrrolo[2,3-b]pyridin-4-yl}-N-[(6-methylpyridin-2-yl)methyl]piperidine-4-carboxamide] | 5.72 | – | 5.63 | 7.31
13 | C#CCN(C)C(=O)C1CCN(c2ccnc3c2c(/C=C2\Oc4ccc(NC(=O)Nc5cccnc5)cc4C2=O)cn3C)CC1 [Compound 226, N-methyl-1-{1-methyl-3-[(Z)-{3-oxo-5-[(pyridin-3-ylcarbamoyl)amino]-1-benzofuran-2(3H)-ylidene}methyl]-1H-pyrrolo[2,3-b]pyridin-4-yl}-N-prop-2-yn-1-ylpiperidine-4-carboxamide] | 5.94 | 7.65 | 6.04 | –
14 | CN(C(=O)C1CCN(c2ccnc3c2c(/C=C2\Oc4ccc(NC(=O)Nc5cccnc5)cc4C2=O)cn3C)CC1)C1CCCC1 [Compound 227, N-cyclopentyl-N-methyl-1-{1-methyl-3-[(Z)-{3-oxo-5-[(pyridin-3-ylcarbamoyl)amino]-1-benzofuran-2(3H)-ylidene}methyl]-1H-pyrrolo[2,3-b]pyridin-4-yl}piperidine-4-carboxamide] | 5.96 | 6.78 | 5.56 | –
15 | CN1CCN(NC(=O)Nc2ccc3c(c2)C(=O)/C(=C/c2cn(C)c4nccc(N5CCC(C(=O)N(C)C)CC5)c24)O3)CC1 [Compound 228, N,N-dimethyl-1-(1-methyl-3-{(Z)-[5-{[(4-methylpiperazin-1-yl)carbamoyl]amino}-3-oxo-1-benzofuran-2(3H)-ylidene]methyl}-1H-pyrrolo[2,3-b]pyridin-4-yl)piperidine-4-carboxamide] | 5.56 | 6.77 | 6.38 | –
